# Source: patent publication US20240424115A1, “LONG-ACTING INTERLEUKIN-15 RECEPTOR AGONISTS AND RELATED IMMUNOTHERAPEUTIC COMPOSITIONS AND METHODS” (Nektar Therapeutics, priority 2017, published 2024)
# Legend:
# IL-15Rα:Fc [1] = assay: SPR (BIAcore), compared with unmodified IL-15
# IL-15Rα:Fc [2] = assay: SPR (BIAcore), IL-15Rα:Fc captured by immobilised goat anti-human Fc, test article injected in 3-fold dilutions from 10 µM
# IL-15Rα:Fc [3] = assay: SPR (BIAcore), IL-15Rα:Fc captured by immobilised goat anti-human Fc, KD from kd/ka
# [4] = Single dose PK study in rats (plasma concentration); assay type: in vivo; conditions: rats, single i.v. 0.3, 0.15, 0.075 mg/kg or s.c. 0.15 mg/kg
# Protocol: Following administration, blood was collected at days 1-7 post administration (with multiple samples collected over the first 24 hours following administration). […]
# CD8 T cells = assay: Immunophenotypic markers in blood and spleen on Day 13 of the CT-26 lung metastasis study; assay type: in vivo, Balb/c mice
# Protocol: Blood and spleenocytes were analyzed on Day 13 for the changes in the immunophenotypic markers using flow cytometry and marker antibodies conjugated with various fluorochromes. Conjugate 2 administered at 0.3, 1, and 3 mg/kg induced a dose-dependent increase of CD8 T cells 1.5, 2.5, and 3.3-fold versus vehicle in blood, respectively. Similar observations were made in spleen with increases of 1.3, 1.7, and 2.2-fold at 0.3, 1, and 3 mg/kg dose levels versus vehicle.
# [5] = Single dose PK study in mice (plasma concentration); conditions: C57BL/6 mice, single i.v. 0.3 mg/kg
# Protocol: C57BL/6 mice (n=3/group) were administered a single intravenous dose of IL-15 (control) at 0.3 mg/kg) or of Conjugate 2 at a dose of 0.3 mg/kg. Following administration, blood samples were collected at various time points post administration (24 hours, 48 hours, 78 hours, 96 hours). […] Finally, at each time point, plasma concentration of drug was determined.
# For PK analysis, Conjugate 1 was administered as a single intravenous dose at 0.3 mg/kg in balb/c mice (n=3). Following administration, mice were humanely sacrificed and plasma was collected 24, 48, 72, 96, 120 and 144 hours post treatment. From a separate study, mice were administered a single intravenous dose of IL-15 (0.5 mg/kg). Samples from these mice were collected at the indicated time points within 6 hours of treatment.
# Balb/c mice (n=3/group) were administered a single intravenous dose of IL-15 (500 ug/kg) or of Conjugate 1 at 10, 30, 100, 300 and 1000 μg/kg. Blood samples were collected at the indicated time points post administration (conjugate 1:24, 48, 72, 96, 120, 144, 240 hours; IL-15 control: 0.03, 0.08, 0.25, 0.5, 1, 2, 4, 6, 8, hours) and plasma concentration of drug was determined.
# CD4, CD8, and NK cells [6] = assay: In vivo IL-15 signaling (STAT5 phosphorylation in lymphocytes) in mice; conditions: C57BL/6 mice, single i.v. 0.3 mg/kg
# Text: Conventional approaches, such as those involving radiolabeling a compound, administering the compound in vivo, and determining its clearance, can be used to assess whether a compound proposed to be a long-acting, IL-15 R agonist is “long-acting” (i.e., has a clearance that is longer than that of IL-15 administered in the same in vivo system). For the purposes herein, the long acting nature of a long-acting IL-15 R agonist may be, and is typically determined using flow cytometry to measure STAT5 phosphorylation in lymphocytes at various time points after administration of the agonist to be evaluated in mice. As a reference, the signal is lost by around 24 hours with IL-15, but is sustained for a period greater than that for a long-acting IL-15 agonist.
# Mice were dosed as described in Example 6 above to assess in-vivo signaling as assessed by degree of STAT5 phosphorylation. Degree of STAT5 phosphorylation in various lymphocytes (CD4, CD8, and NK cells) was assessed by staining whole blood for leukocyte surface markers and pSTAT5, followed by measurement by flow cytometry. Results are shown in FIGS. 8A and 8 B for IL-15 and for Conjugate 2, respectively.
# [PK methods previously described herein].
# STAT5 phosphorylation in CD4 T cells was determined by using a CD3+CD4+CD8-pSTAT5+ marker combination. FIG. 43 is a plot of pSTAT5 phosphorylation percent positivity within CD4 T cells over time (at 0.25, 1, 6, 24, 48, 72, 96 and 120 hours post administration) at a dose of 0.03 mg/kg (blue, solid squares) or 0.3 mg/kg (orange, solid circles). The vehicle over time (black) and pre-dose (open circles) levels are also shown.
# [7] = system: NK cells, CD8 T cells, CD4 T cells; assay: In vivo PD study in non-human primates: lymphocyte cell numbers and proliferation; design: species or system cynomolgus monkeys; conditions: cyno, single i.v. 500 μg/kg
# Protocol: In the study, cynomolgus monkeys, one female and one male, were administered 500 μg/kg of Conjugate 2 intravenously. A series of blood samples were taken from each animal before treatment (day-6 and -1) and at multiple intervals following single dose treatment for assessment by flow cytometry of lymphocyte cell numbers (NK cells, CD8 T-cells, etc.) and activation.
# NK cell counts were determined to assess the ability of exemplary Conjugate 2 to induce sustained NK cell proliferation in non-human primates; results are shown in FIGS. 16A and 16B. NK cells and their proliferation in blood from cynomolgus monkey were identified by flow cytometry. Acquisition and analysis of NK cells (CD45+ CD3− CD16+) and their proliferation status (CD45+CD3−CD16+ Ki67+) were conducted using BD FACS DIVA software. Absolute values for NK cells and proliferating NK cells were used to calculate % Ki67 positivity within the NK population. Pre and post-treatment values were plotted using Prism.
# CD8 T cell counts were also determined as illustrated in FIG. 17 for each animal from pre-dose to 14 days post-administration. Specifically, CD8 T cells were defined as CD45+CD3+CD4−CD8+. Blood from the monkeys was also subject to immunophenotyping as previously described. In monkey, CD8 T cells increased in a sustained manner, an effect lasting for at least 10 days. This plot further exemplifies the ability of an exemplary long acting IL-15 receptor agonist, Conjugate 2, to induce proliferation and sustained increases in numbers of CD8 T-cells post-administration.
# In monkey, CD8 TEM cells were defined as CD45+CD3+CD4−CD8+CD45Ra−CD197− and CD8 Tcm were defined as CD45+CD3+CD4−CD8+CD45Ra−CD197+. Immunophenotyping was conducted by flow cytometry with sample acquisition on DIVA software and data analysis on Flowjo software. Graphs were plotted using Prism. […] The figures indicate that both CD8 effector and central memory T cell populations proliferate in response to exemplary Conjugate 2.
# In this study, cynomolgus monkeys (cyno), one female and one male, were each intravenously administered a single dose of Conjugate 1 (0.1 mg/kg). A series of blood samples were taken from each animal over a 14-day time course and subjected to flow cytometry analysis of various lymphocytes (CD8 T cells, Ki-67 percent positivity within total CD8, CD8 central memory T cells (TCM) and CD8 effector memory T cells (Tem), NK cells and Ki-67 percent positivity of NK cells).
# (§1) Cynomolgus monkeys (n=3-4 males), were administered a single intravenous injection of Conjugate 1 at 0.003, 0.01, 0.1 mg/kg or a vehicle control. Blood samples were collected at the indicated time points pre and post dose (−5, −2, 1, 2, 3, 4, 5, 6, 7, 10, 14, 17 days) and subjected to flow cytometric analysis to examine pharmacodynamic effects within lymphocyte populations. Proliferation (% Ki-67) and JAK/STAT signaling (% pSTAT5) for NK cells, CD8 T cells, and CD4 T cells were examined, with the results shown in FIGS. 45A-C and FIGS. 46A-C, respectively.
# In cynomolgus monkey, CD8 naïve and memory subpopulations were defined by CD45Ra, CD197 and CD95. […] Within the CD8 Tem, […] and Tscm populations, Conjugate 1 induced robust % Ki-67 expression in a dose dependent manner with detectable increases in proliferation marker positivity starting as early as day 2, reaching a maximum at day 5 and returning to baseline between days 10-14. The Ki-67 expression and kinetics within the CD8 populations support the sustained increase in CD8 T cell numbers shown in Example 27 and FIGS. 47A-D.
# CT-26 cells = assay: CT-26 lung metastasis model
# Protocol: At day 0, 6-8 week-old female Balb/c mice were inoculated with 1×10^5 mouse CT-26 cells by tail vein injection. On day 1, post 24 h of CT-26 cells being administered, mice were divided into ten groups. […] Each group was assigned one intervention as follows: vehicle, phosphate buffered saline (Group A); native IL-15 alone (Group B); Conjugate 2 at a dose of 0.03 mg/kg (Group C); Conjugate 2 at a dose of 0.1 mg/kg (Group D); Conjugate 2 at a dose of 0.3 mg/kg (Group E); Conjugate 2 at a dose of 1.0 mg/kg (Group F); Conjugate 2 at a dose of 3.0 mg/kg (Group G); for Conjugate 1: vehicle, phosphate buffered saline (Group H); Conjugate 1 at a dose of 0.03 mg/kg (Group I) and Conjugate 1 at a dose of 0.3 mg/kg (Group J). Animals were dosed at days 1, 5, and 10.
# Post 13 days from the date of CT-26 tumor cells administration, mice were anesthetized, and blood and spleen cells were collected for further analysis of immunophenotype markers, while lungs were fixed for 24-48 h in Bouins solution containing picric acid and formaldehyde.
# The number of lung tumor nodules were counted under a dissection per each lung and mean of lung nodules for each group was determined. The statistical significance was also obtained between the vehicle group vs intervention groups using unpaired students t test.
# Balb/c mice received tail vein injection of 1×10^5 CT-26 colorectal carcinoma cells. The following day, mice (n=9/group) were treated weekly, twice, with Conjugate 1 (0.03 or 0.3 mg/kg) or vehicle control. Five days after the second injection, mice were humanely sacrificed and lung nodules were counted.
# CT-26 mice (n=7-11/group) were injected with anti-asialo GM1 to deplete NK cells or two different controls (lgG or PBS), then injected with 1×10^5 CT-26 tumor cells. Mice were then treated with Conjugate 2 at 0.3 mg/kg dosed on days 1, 5 and 10 post tumor cell injection or vehicle control. Mice were sacrificed and lung nodules were counted three days after the last day of treatment.
# CD4, CD8, and NK cells [8] = assay: In vivo IL-15 signaling (STAT5 phosphorylation in lymphocytes) in non-human primates; design: species or system cynomolgus monkeys; conditions: cyno, single i.v. 0.5 mg/kg
# Protocol: In the study, cynomolgus monkeys (cyno), one female and one male, were each intravenously administered a single dose of Conjugate 2 (0.5 mg/kg). A series of blood samples were taken from each animal both prior to treatment (day-6 and-1) and at multiple intervals following treatment for assessment by flow cytometry of STAT5 phosphorylation in various types of lymphocytes (CD4, CD8, and NK cells). Results are provided in FIGS. 9A (CD4), 9B (CD8), and 9C (NK).
# as §1
# Chain of IL-15Rα:Fc (Q13261 31-205): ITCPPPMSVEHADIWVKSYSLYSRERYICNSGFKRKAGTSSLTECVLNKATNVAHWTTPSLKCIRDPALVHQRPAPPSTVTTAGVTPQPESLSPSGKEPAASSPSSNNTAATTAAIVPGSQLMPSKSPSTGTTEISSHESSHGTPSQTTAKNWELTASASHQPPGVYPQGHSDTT
substance,measurement,setting,value
mono-mPEG-SBA40K-IL-15 (Conjugate 1) (from UniProt P40933 49-162) (ligand),percent of the alpha receptor affinity of IL-15 retained,IL-15Rα:Fc [1],80%
same,koff,IL-15Rα:Fc [2],0.000103 s⁻¹
same,kon,IL-15Rα:Fc [2],492000 M⁻¹ s⁻¹
same,Kd,IL-15Rα:Fc [3],0.209 nM
N-(2-methoxyPEG-ethyl)-7-(4-((2-methoxyPEG-ethyl) amino)-4-oxobutyl)-9-ethyl-9 H-fluorene-4-carboxamide carbamate-IL-15 [Conjugate 2],exposure to drug,[4],sustained and dose-proportional exposure to drug
same,increase of Bcl-2+MFI in CD8,CD8 T cells; blood and spleen,≤ 1.5 fold
same,increase of CD8 T cells versus vehicle,"CD8 T cells; blood, 0.3 mg/kg",1.5 fold
same,increase of CD8 T cells versus vehicle,"CD8 T cells; blood, 1 mg/kg",2.5 fold
same,increase of CD8 T cells versus vehicle,"CD8 T cells; blood, 3 mg/kg",3.3 fold
same,CD8 T cell proliferation (Ki-67) change compared to vehicle,"CD8 T cells; blood, high dose 3 mg/kg",5.3 fold
same,CD8 T cell proliferation (Ki-67) change compared to vehicle,"CD8 T cells; blood, low dose 0.3 mg/kg",1.7 fold
same,increase of CD8 T cells versus vehicle,"CD8 T cells; spleen, 0.3 mg/kg",1.3 fold
same,increase of CD8 T cells versus vehicle,"CD8 T cells; spleen, 1 mg/kg",1.7 fold
same,increase of CD8 T cells versus vehicle,"CD8 T cells; spleen, 3 mg/kg",2.2 fold
same,CD8 T cell proliferation (Ki-67) change compared to vehicle,"CD8 T cells; spleen, high dose 3 mg/kg",6.9 fold
same,CD8 T cell proliferation (Ki-67) change compared to vehicle,"CD8 T cells; spleen, low dose 0.3 mg/kg",2.5 fold
same,CD8 T cell proliferation (Ki-67) change compared to vehicle,"CD8 T cells; spleen, mid dose 1 mg/kg",5.7 fold
same,T1/2,[5],20 to 30 h
same,time with measurable concentrations in plasma,[5],greater than 1 week
same,duration of in-vivo STAT5 phosphorylation activity in NK and CD8 cells,"CD4, CD8, and NK cells [6]",> 72 h
same,CD8 TEM and TCM cell counts,[7],induces a significant and sustained increase in CD8 effector and central memory T cell populations
same,"NK cell proliferation (Ki67, cell counts)",[7],effective to induce sustained NK cell proliferation
same,duration of CD8 T cell increase,[7],at least 10 days
same,efficacy (lung nodule inhibition) after NK cell depletion,"CT-26 cells; 0.3 mg/kg days 1, 5, 10, anti-asialo GM1",abolished when mice lacked NK cells
same,reduction in lung metastases in comparison to vehicle,"CT-26 cells; Example 13, i.v. days 1, 5, 10, dose not stated",65%
same,return of STAT5 phosphorylation to near pre-dose levels,"CD4, CD8, and NK cells [8]",5 to 10 days
